Reference: patent US20250051323A1 (RICHTER GEDEON NYRT., priority 2021, published 2025)
Counter-ions that a name gives are not always drawn. Like-named read-outs stand apart in the source and are kept apart here.

What was measured:
[1] = cited from earlier work
[2] = biological target: T1, human recombinant GABAA α5β3γ2 receptor (Homo sapiens (Human), UniProt P18507+P31644); assay: Binding assay, [3H]Ro151788 displacement on HEK cell membranes; settings: [3H]Ro151788 0.5 nM, 60 minutes at 4° C., Cheng-Prusoff; read-out: hGABAA α5 Ki
Procedure: The GABAA α5β3γ2 protein used for the receptor binding assay was derived from membranes produced from HEK cells (Millipore CYL3073) expressing the human recombinant GABAA α5β3γ2 receptor. Cells were stored and cultured in-house according to the instructions provided by the vendor (Millipore). Cell pellet was homogenized in 10 times modified Krebs Henseleit buffer (membrane preparation buffer): 20 mM Tris, 120 mM NaCl, 100 mM KCl, 25 mM CaCl2 and 25 mM MgCl2 pH=7.4 at 4° C. using Ultra Turrax (Janke&Kunkel) maximal speed for 15 seconds. The homogenate was centrifuged at 40,000 g for 30 minutes at 4° C. Supernatant was discarded and the resulting pellet was washed in membrane preparation buffer. Pellet was resuspended in membrane preparation buffer and aliquots of 1.4 mL ampules were stored at −70° C. until use.
Receptor binding assays were performed in 96-well format in deep-well plates. For each 96-well plate one ampule of membrane homogenate was thawed and diluted in binding buffer (50 mM Tris pH=7.4, 100 mM KCl) and 200 μL was dispensed into each well. Radioligand [^3H]Ro151788 (Perkin Elmer: NET757250UC) was prepared in binding buffer and added to each well in 50 μL volume to give final concentration of 0.5 nM. Test compounds in suitable concentration(s) were added in additional 50 μL. The final assay volume was 300 μL. Incubation was carried out for 60 minutes at 4° C. For non-specific binding 10 μM unlabeled diazepam was used. […] The plate was dried at 40° C. for an hour and 40 μL Microscint (Perkin Elmer) scintillation cocktail was added to each well. The plate was read in Microbeta (Perkin Elmer).
The specific radioligand binding (SB) was defined as the difference between total binding (Tot) and the non-specific binding (NSB). Results are expressed as a percent inhibition of specific binding obtained in the presence of compound of interest.
For IC50 and Ki determination a minimum of six drug concentrations in triplicate were used. […] Ki values (i.e., inhibition constants) were calculated using the Cheng-Prusoff equation Ki=IC5O/[1+(L/KD)], where [L] is the radioligand concentration and KD the affinity of the labelled ligand for receptor. KD was determined from the Saturation analyses.

[3] = biological target: T1, human recombinant GABAA α5β3γ2 receptor; assay: Functional assay, QPatch automated whole-cell patch clamp, modulation of GABA-evoked current; assay type: cell-based; settings: read-out: hGABAA α5 efficacy (percentage modulation of GABA-evoked peak current)
Procedure: Human HEK293 cell lines expressing GABAAα5β3γ2 receptors were used in functional assays using the QPatch automated patch clamp system.
HEK293 cell lines stably expressing human recombinant GABAA α5β3γ2 receptor subunits (Millipore, CYL3053) were cultured in DMEM supplemented with 10% FBS (Gibco), passed two times per week and plated on Petri dishes previously coated with poly-d-lysine.
Automated whole-cell patch clamp recordings were made from cells 2-4 days after plating.
Inward currents were evoked at a holding potential of −80 mV by 3-s-long applications of the control agonist GABA at 1 μM at 2-4-min intervals first in concentration-matched DMSO (0.1 or 0.3%) control solution for five times, then in the presence of the test compound for four times, finally in control solution again for three times (wash-out). At the end of the experiment 100 μM GABA was applied to saturate the GABA-response and to assess the efficacy of the control GABA application. Current signals were low-pass filtered at 100 Hz and recorded at a sampling rate of 1 kHz.
The percentage modulation was calculated from the comparison of GABA-evoked peak current amplitudes in the presence and absence of the test compound.

[4] = mouse stress models and aged mice; cited from earlier work
[5] = rats, developmental models of schizophrenia; cited from earlier work
[6] = low dose; cited from earlier work
[7] = test compound 1 μM, GABA 1 μM, holding potential −80 mV

T1 sequence (P31644 32-462): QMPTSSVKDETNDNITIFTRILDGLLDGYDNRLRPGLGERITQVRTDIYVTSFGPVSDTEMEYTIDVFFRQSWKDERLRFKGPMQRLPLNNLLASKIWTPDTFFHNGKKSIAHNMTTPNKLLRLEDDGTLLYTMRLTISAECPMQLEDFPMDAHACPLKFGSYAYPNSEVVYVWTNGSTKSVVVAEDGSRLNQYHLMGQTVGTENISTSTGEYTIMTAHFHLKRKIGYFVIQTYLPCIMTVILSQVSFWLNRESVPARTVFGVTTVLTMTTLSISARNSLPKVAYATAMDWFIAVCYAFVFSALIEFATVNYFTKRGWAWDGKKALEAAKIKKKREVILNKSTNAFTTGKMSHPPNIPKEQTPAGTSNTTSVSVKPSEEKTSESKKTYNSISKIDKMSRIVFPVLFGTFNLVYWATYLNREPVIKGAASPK
T1 sequence (P28472 26-473 partner): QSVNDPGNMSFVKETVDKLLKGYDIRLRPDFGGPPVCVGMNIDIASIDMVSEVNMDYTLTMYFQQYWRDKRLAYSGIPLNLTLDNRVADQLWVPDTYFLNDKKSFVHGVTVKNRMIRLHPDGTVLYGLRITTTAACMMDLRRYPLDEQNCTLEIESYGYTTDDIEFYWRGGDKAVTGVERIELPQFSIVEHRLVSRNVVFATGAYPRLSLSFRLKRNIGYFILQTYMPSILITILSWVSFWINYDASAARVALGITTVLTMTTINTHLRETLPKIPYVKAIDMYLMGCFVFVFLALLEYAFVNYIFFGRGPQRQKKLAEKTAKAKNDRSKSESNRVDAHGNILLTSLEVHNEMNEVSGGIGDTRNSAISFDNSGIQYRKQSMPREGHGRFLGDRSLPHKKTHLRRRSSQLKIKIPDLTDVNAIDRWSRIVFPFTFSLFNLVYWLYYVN
T1 sequence (P18507 40-475): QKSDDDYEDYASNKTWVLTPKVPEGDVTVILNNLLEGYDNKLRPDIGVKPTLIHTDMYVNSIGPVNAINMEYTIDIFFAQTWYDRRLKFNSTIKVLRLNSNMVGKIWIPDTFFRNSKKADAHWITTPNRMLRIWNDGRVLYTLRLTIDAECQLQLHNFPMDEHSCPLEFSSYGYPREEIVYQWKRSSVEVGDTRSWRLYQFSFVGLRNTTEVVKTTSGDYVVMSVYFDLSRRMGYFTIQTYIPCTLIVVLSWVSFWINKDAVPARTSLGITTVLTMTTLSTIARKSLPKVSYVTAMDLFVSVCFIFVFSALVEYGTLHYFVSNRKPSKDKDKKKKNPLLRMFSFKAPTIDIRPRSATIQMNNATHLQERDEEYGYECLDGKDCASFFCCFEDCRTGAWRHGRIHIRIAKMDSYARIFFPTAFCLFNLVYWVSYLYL

Row | SMILES | Ki [2] [nM] | activation at 1 µM [3, 7] [%] | further results
1 | Cc1ccc(-n2nnc(C)c2COc2cc3c(nn2)CNCC3)cn1 [Compound 44] | – | – | cognitive performance ([1]; aged rats): improved cognitive performance
2 | Cc1ccc(-c2noc(C)c2COc2cc3c(cn2)CN(C2CCOCC2)CC3)cn1 [Example 11, 6-{[5-methyl-3-(6-methylpyridin-3-yl)-1,2-oxazol-4-yl]methoxy}-2-(oxan-4-yl)-1,2,3,4-tetrahydro-2,7-naphthyridine] | 7.4 | 114 | –
3 | Cc1ccc(-c2noc(C)c2COc2cc3c(cn2)CN(c2ccccn2)CC3)cn1 [Example 13, 6-{[5-methyl-3-(6-methylpyridin-3-yl)-1,2-oxazol-4-yl]methoxy}-2-(pyridin-2-yl)-1,2,3,4-tetrahydro-2,7-naphthyridine] | 6.6 | 129 | –
4 | Cc1ccc(-c2noc(C)c2COc2cc3c(nn2)CNCC3)cn1 [Example 14, 2-methyl-5-[5-methyl-4-({5H,6H,7H,8H-pyrido[3,4-c]pyridazin-3-yloxy}methyl)-1,2-oxazol-3-yl]pyridine] | 3.2 | 126 | –
5 | Cc1onc(-c2ccc(C(F)(F)F)nc2)c1COc1cc2c(nn1)CNCC2 [Example 15, 5-[5-methyl-4-({5H,6H,7H,8H-pyrido[3,4-c]pyridazin-3-yloxy}methyl)-1,2-oxazol-3-yl]-2-(trifluoromethyl)pyridine] | 17.1 | 115 | –
6 | Cc1ccc(-c2noc(C)c2COc2cc3c(nn2)CN(C)CC3)cn1 [Example 16, 2-methyl-5-{5-methyl-4-[({7-methyl-5H,6H,7H,8H-pyrido[3,4-c]pyridazin-3-yl}oxy)methyl]-1,2-oxazol-3-yl}pyridine] | 5.6 | 146 | –
7 | Cc1onc(-c2ccc(C(F)(F)F)nc2)c1COc1cc2c(nn1)CN(CC1CCS(=O)(=O)C1)CC2 (stereo not drawn) [Example 19, 3-{[3-({5-methyl-3-[6-(trifluoromethyl)pyridin-3-yl}-1,2-oxazol-4-yl]methoxy)-5H,6H,7H,8H-pyrido[3,4-c]pyridazin-7-yl]methyl}-1lambda6-thiolane-1,1-dione tartarate salt] | 35.5 | – | activation at 1 µM [3]: 129%
8 | Cc1ccc(-n2nnc(C)c2COc2cc3c(cn2)CNCC3)cn1 [Example 20, 6-{[4-methyl-1-(6-methylpyridin-3-yl)-1H-1,2,3-triazol-5-yl]methoxy}-1,2,3,4-tetrahydro-2,7-naphthyridine] | 26.5 | 111 | –
9 | Cc1ccc(-n2nnc(C)c2COc2cc3c(cn2)CN(C)CC3)cn1 [Example 21, 2-methyl-6-{[4-methyl-1-(6-methylpyridin-3-yl)-1H-1,2,3-triazol-5-yl]methoxy}-1,2,3,4-tetrahydro-2,7-naphthyridine] | 23 | 134 | –
10 | Cc1ccc(-n2nnc(C)c2COc2cc3c(cn2)CN(C(C)C)CC3)cn1 [Example 22, 6-{[4-methyl-1-(6-methylpyridin-3-yl)-1H-1,2,3-triazol-5-yl]methoxyl}-2-(propan-2-yl)-1,2,3,4-tetrahydro-2,7-naphthyridine] | 22.7 | 68 | –
11 | Cc1nnn(-c2ccc(C(F)F)nc2)c1COc1cc2c(cn1)CN(C)CC2 [Example 24, 6-({1-[6-(difluoromethyl)pyridin-3-yl]-4-methyl-1H-1,2,3-triazol-5-yl}methoxy)-2-methyl-1,2,3,4-tetrahydro-2,7-naphthyridine] | 8.3 | 88 | –
12 | Cc1nnn(-c2ccc(C(F)(F)F)nc2)c1COc1cc2c(cn1)CNCC2 [Example 25, 6-({4-methyl-1-[6-(trifluoromethyl)pyridin-3-yl]-1H-1,2,3-triazol-5-yl}methoxy)-1,2,3,4-tetrahydro-2,7-naphthyridine] | 128 | 73 | –
13 | Cc1nnn(-c2ccc(C(F)F)nc2)c1COc1cc2c(cn1)CN(C1CCOC1)CC2 (stereo not drawn) [Example 30, 6-({1-[6-(difluoromethyl)pyridin-3-yl]-4-methyl-1H-1,2,3-triazol-5-yl}methoxy)-2-(oxolan-3-yl)-1,2,3,4-tetrahydro-2,7-naphthyridine] | 3.3 | 59 | –
14 | Cc1ccc(-n2nnc(C)c2COc2cc3c(cn2)CN(C2COC2)CC3)cn1 [Example 31, 6-{[4-methyl-1-(6-methylpyridin-3-yl)-1H-1,2,3-triazol-5-yl]methoxy}-2-(oxetan-3-yl)-1,2,3,4-tetrahydro-2,7-naphthyridine] | 36 | 115 | –
15 | Cc1nnn(-c2ccc(C(F)(F)F)nc2)c1COc1cc2c(cn1)CN(C1CCOC1)CC2 (stereo not drawn) [Example 32, 6-({4-methyl-1-[6-(trifluoromethyl)pyridin-3-yl]-1H-1,2,3-triazol-5-yl}methoxy)-2-(oxolan-3-yl)-1,2,3,4-tetrahydro-2,7-naphthyridine] | 44.5 | 155 | –
16 | Cc1ccc(-n2nnc(C)c2COc2cc3c(cn2)CN(C2CCOCC2)CC3)cn1 [Example 33, 6-{[4-methyl-1-(6-methylpyridin-3-yl)-1H-1,2,3-triazol-5-yl]methoxy}-2-(oxan-4-yl)-1,2,3,4-tetrahydro-2,7-naphthyridine] | 29.5 | 71 | –
17 | COc1ccc(-n2nnc(C)c2COc2cc3c(cn2)CNCC3)cn1 [Example 34, 6-{[1-(6-methoxypyridin-3-yl)-4-methyl-1H-1,2,3-triazol-5-yl]methoxy}-1,2,3,4-tetrahydro-2,7-naphthyridine] | 51.6 | 62 | –
18 | Cc1ccc(-n2nnc(C)c2COc2cc3c(nn2)CNCC3)cn1 [Example 44, 2-methyl-5-[4-methyl-5-({5H,6H,7H,8H-pyrido[3,4-c]pyridazin-3-yloxy}methyl)-1H-1,2,3-triazol-1-yl]pyridine] | 40.4 | 96 | –
19 | Cc1ccc(-n2nnc(C)c2COc2cc3c(nn2)CN(CC2CCC2)CC3)cn1 [Example 45, 5-[5-({[7-(cyclobutylmethyl)-5H,6H,7H,8H-pyrido[3,4-c]pyridazin-3-yl]oxy}methyl)-4-methyl-1H-1,2,3-triazol-1-yl]-2-methylpyridine tartarate salt] | 99.5 | – | activation at 1 µM [3]: 97%
20 | Cc1ccc(-n2nnc(C)c2COc2cc3c(nn2)CN(C2CCC2)CC3)cn1 [Example 46, 5-{5-[({7-cyclobutyl-5H,6H,7H,8H-pyrido[3,4-c]pyridazin-3-yl}oxy)methyl]-4-methyl-1H-1,2,3-triazol-1-yl}-2-methylpyridine tartarate salt] | 61.5 | – | activation at 1 µM [3]: 76%
21 | C#Cc1ccc2c(c1)C(c1ccccc1F)=N[C@H](C)c1c(C(=O)NC)ncn1-2 [MP-III-022] | – | – | behavioural effects [4]: procognitive, anxiolytic and antidepressant effects; pathological changes of locomotor activity [5]: attenuated pathological changes of locomotor activity; cognitive performance ([1]; young rats): improved cognitive performance
22 | C#Cc1ccc2c(c1)C(c1ccccc1F)=N[C@H](C)c1c(C(=O)OCC)ncn1-2 [SH-053-2′F—R—CH3] | – | – | behavioural effects [4]: procognitive, anxiolytic and antidepressant effects; pathological changes of locomotor activity [5]: attenuated pathological changes of locomotor activity
23 | O=C1CN=C(c2ccccc2Cl)c2cc([N+](=O)[O-])ccc2N1 [clonazepam] | – | – | symptoms in preclinical models of ASD [6]: ameliorate symptoms
